The values below come from patent publication US20060252807A1, “Novel ortho-terphenyl inhibitors of p38 kinase and methods of treating inflammatory disorders” (Kalypsys, Inc., priority 2005, published 2006).

The target of the assay is T1, active p38 alpha enzyme (Upstate Biotechnology) (Homo sapiens, UniProt Q16539).
T1 construct: purchased Upstate Biotechnology
Nature of the assay: p38α biochemical assay (ATP turnover, luminescent detection, Cambrex PKlight). The settings on record: p38α kinase; Table 1 Biological Activity. In outline:
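p38α + MapkapK2 (whole protein substrate) + 1.4 uM ATP final; Tris/MOPS buffer with MgCl2, CaCl2, EGTA, EDTA, glycerol, β-ME, BSA; 2 h at 30C; luminescent detection of remaining ATP.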

The pIC50 is the IC50 on a negative log10 scale, so that one unit is a factor of ten. High values mean a low IC50, low ones a high IC50.

pIC50: −log10 of the molar value. Some results are limits rather than exact numbers.

T1 sequence (Q16539 whole entry): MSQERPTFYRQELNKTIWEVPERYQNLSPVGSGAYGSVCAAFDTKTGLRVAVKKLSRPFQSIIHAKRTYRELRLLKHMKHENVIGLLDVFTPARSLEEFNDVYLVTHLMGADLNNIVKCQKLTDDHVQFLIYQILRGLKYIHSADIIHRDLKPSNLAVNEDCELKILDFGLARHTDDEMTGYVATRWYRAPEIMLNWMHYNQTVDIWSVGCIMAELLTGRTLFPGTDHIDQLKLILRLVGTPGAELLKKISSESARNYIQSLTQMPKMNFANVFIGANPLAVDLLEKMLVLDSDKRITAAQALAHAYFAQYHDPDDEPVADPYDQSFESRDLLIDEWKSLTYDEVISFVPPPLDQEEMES

Regarding `CC(C)NC(=O)c1csc(-c2oc(CNCC#N)nc2-c2ccc(F)cc2)n1` [Example 1052], the pIC50 was below 6.00.

The molecule `CC(C)NC(=O)c1csc(-c2oc(CNC3CC3)nc2-c2ccc(F)cc2)n1` [Example 1053] showed a negative-log IC50 (pIC50) below 6.00.

Consider `CC(C)NCc1nc(-c2ccc(F)cc2)c(-c2nc(C(=O)NC(C)C)cs2)o1` [Example 1054], for which the pIC50 is below 6.00.

Consider `CCCNCc1nc(-c2ccc(F)cc2)c(-c2nc(C(=O)NC(C)C)cs2)o1` [Example 1055], for which the negative-log IC50 (pIC50) was below 6.00.

`CC(C)NC(=O)c1csc(-c2oc(CNCCN)nc2-c2ccc(F)cc2)n1` [Example 1056] had a pIC50 below 6.00.

`CC(C)NC(=O)c1csc(-c2oc(CNCCO)nc2-c2ccc(F)cc2)n1` [Example 1057] had a pIC50 below 6.00.

Molecule `CC(C)NC(=O)c1csc(-c2oc(CNCCC#N)nc2-c2ccc(F)cc2)n1` [Example 1058] had a pIC50 below 6.00.

Consider `CC(C)NC(=O)c1csc(-c2oc(CNC3CCC3)nc2-c2ccc(F)cc2)n1` [Example 1059], for which the pIC50 is below 6.00.

For `CC(C)NC(=O)c1csc(-c2oc(CNCC3CC3)nc2-c2ccc(F)cc2)n1` [Example 1060], the pIC50 was below 6.00.

Molecule `CCC(C)NCc1nc(-c2ccc(F)cc2)c(-c2nc(C(=O)NC(C)C)cs2)o1` (stereo not drawn) [Example 1061] gave a pIC50 below 6.00.

Turning to `CC(C)CNCc1nc(-c2ccc(F)cc2)c(-c2nc(C(=O)NC(C)C)cs2)o1` [Example 1062], the pIC50 is below 6.00.

Take `CC(C)NC(=O)c1csc(-c2oc(CNCCCO)nc2-c2ccc(F)cc2)n1` [Example 1063]: the pIC50 was below 6.00.

With `CC(C)NC(=O)c1csc(-c2oc(CNC(C)CO)nc2-c2ccc(F)cc2)n1` (stereo not drawn) [Example 1064], the negative-log IC50 (pIC50) is at least 6.00.

As for `COCCNCc1nc(-c2ccc(F)cc2)c(-c2nc(C(=O)NC(C)C)cs2)o1` [Example 1065], the pIC50 is at least 6.00.

Molecule `CC(C)NC(=O)c1csc(-c2oc(CNC3CCCC3)nc2-c2ccc(F)cc2)n1` [Example 1066] gave a pIC50 below 6.00.

For the molecule `CCCC(C)NCc1nc(-c2ccc(F)cc2)c(-c2nc(C(=O)NC(C)C)cs2)o1` (stereo not drawn) [Example 1067], the pIC50 is below 6.00.

Molecule `CCC(C)CNCc1nc(-c2ccc(F)cc2)c(-c2nc(C(=O)NC(C)C)cs2)o1` (stereo not drawn) [Example 1068] gave a pIC50 below 6.00.

Consider `CC(C)NC(=O)c1csc(-c2oc(CNC(C)C(C)C)nc2-c2ccc(F)cc2)n1` (stereo not drawn) [Example 1069], for which the pIC50 is at least 6.00.

`CC(C)CCNCc1nc(-c2ccc(F)cc2)c(-c2nc(C(=O)NC(C)C)cs2)o1` [Example 1070] had a pIC50 below 6.00.

Turning to `CC(C)NC(=O)c1csc(-c2oc(CNCCN(C)C)nc2-c2ccc(F)cc2)n1` [Example 1071], the pIC50 is below 6.00.

`COCC(C)NCc1nc(-c2ccc(F)cc2)c(-c2nc(C(=O)NC(C)C)cs2)o1` (stereo not drawn) [Example 1072]: the pIC50 was below 6.00.

Regarding `CCC(CO)NCc1nc(-c2ccc(F)cc2)c(-c2nc(C(=O)NC(C)C)cs2)o1` (stereo not drawn) [Example 1073], the pIC50 was below 6.00.

Take `CCC(CO)NCc1nc(-c2ccc(F)cc2)c(-c2nc(C(=O)NC(C)C)cs2)o1` (stereo not drawn) [Example 1074]: the pIC50 was at least 6.00.

On to `CC(C)NC(=O)c1csc(-c2oc(CNCCCCO)nc2-c2ccc(F)cc2)n1` [Example 1075], for which the pIC50 was below 6.00.

For the molecule `CC(C)NC(=O)c1csc(-c2oc(CNCc3ccco3)nc2-c2ccc(F)cc2)n1` [Example 1076], the pIC50 was below 6.00.

In turn, `CC(C)NC(=O)c1csc(-c2oc(CNC3CCCCC3)nc2-c2ccc(F)cc2)n1` [Example 1077] gave a pIC50 below 6.00.

The molecule `CC(C)NC(=O)c1csc(-c2oc(CNCC3CCCO3)nc2-c2ccc(F)cc2)n1` (stereo not drawn) [Example 1078] gave a pIC50 below 6.00.

In turn, `CC(C)NC(=O)c1csc(-c2oc(CNCCC(C)(C)C)nc2-c2ccc(F)cc2)n1` [Example 1079] gave a pIC50 of at least 6.00.

`CC(C)CC(C)NCc1nc(-c2ccc(F)cc2)c(-c2nc(C(=O)NC(C)C)cs2)o1` (stereo not drawn) [Example 1080] had a pIC50 below 6.00.

Turning to `CC(C)NC(=O)c1csc(-c2oc(CNC3CONC3=O)nc2-c2ccc(F)cc2)n1` (stereo not drawn) [Example 1081], the pIC50 was below 6.00.
